Data from patent US8993721B2, “Peptides for targeting apoptotic cells and uses thereof” (Kyungpook National University Industry-Academic Cooperation …, priority 2008, dated 2015).
Entries after “also recorded” stand apart in the source; their conditions may differ. Where no end group is shown, it is not given here.

How the values were obtained:
[1] = test system: heart of myocardial ischemic rat (ischemia/reperfusion model); test: Molecular imaging of myocardial ischemia (Example 7); assay type: in vivo; conditions: Cy7.5-labeled peptide i.v. 2 hours after reperfusion; imaged 2 hours after injection
Experimental: A myocardial ischemia model was established by occluding the coronary artery of a rat, followed by reperfusion (ischemia/reperfusion model). For the operation, a rat was anesthetized by intra-abdominally injecting 10 mg of phenobarbital and, followed by endobronchial intubation, a ventilator was connected. Thereafter, the thorax was cut open to expose the heart. The left anterior descending coronary artery was occluded for 30 minutes using a suture and, then, the blood was allowed to circulate. For a control group (Sham), the same operation was performed, except for the occlusion. Two hours after the reperfusion, the peptide having an amino sequence represented by SEQ ID NO: 1 (ApoPep-1), labeled with Cy7.5 NIR fluorescence, was intravenously injected to the rats of the myocardial ischemia group and the control group. Two hours after the peptide injection, NIR images of the heart portion were obtained. Then, NIR images were obtained after isolating the heart.

[2] = test system: brain of stroke rat (middle cerebral artery occlusion/reperfusion); test: Molecular imaging of stroke (Example 6); assay type: in vivo
Experimental: A stroke model was established by occluding the left middle cerebral artery of a rat for 2 hours, followed by reperfusion. Two hours after the reperfusion, the peptide having an amino sequence represented by SEQ ID NO: 1 (ApoPep-1) and a control peptide, labeled with Cy7.5 NIR fluorescence, was intravenously injected at a final concentration of 50 μM to the stroke rat and a normal rat through the tail vein, under isoflurane anesthesia. One and three hours after the intravenous injection, NIR images of the head portion were obtained. Further, NIR fluorescence images of the brains of the rats of the 3 hour group were obtained.

[3] = test system: apoptotic A549 cells; test: Competitive inhibition of binding to apoptotic cells by annexin V treatment (Example 3-2); assay type: cell-based, human; conditions: annexin V 1000 μM pre-treatment
Experimental: In order to further investigate the binding properties of the peptide of the present invention (ApoPep-1) to apoptotic cells, competitive inhibition by annexin V was measured. To this end, first, apoptotic A549 cells were pre-treated with annexin V, not labeled with fluorescence, at concentrations of 0, 200 and […]. Then, after reacting the cells with fluorescence-labeled annexin V under the same condition as described in Example <3-1>, the binding of the cells was observed under a fluorescence microscope.
(§1) Further, apoptotic A549 cells were pre-treated with annexin V, not labeled with fluorescence, at a concentration of 1000 μM. Then, after reacting the cells with fluorescence-labeled peptide under the same condition as described in Example <3-1>, the binding of the cells was observed under a fluorescence microscope.

[4] = test system: etoposide-treated apoptotic cells (A549, H460, HeLa, L132, RAW); test: Microscopic observation of binding of the peptide to apoptotic cells (Example 3-1); assay type: cell-based
Experimental: Cells were cultured in chamber slide (Nalgene Nunc) and treated with 50 μM etoposide (Sigma) for a given period of time (A549 and HeLa cells: for 15 hours, H460 cells: 24 hours, L132 cells: 3 hours, RAW cells: 6 hours) to induce apoptosis. The cells were cultured in RMPI-1640 medium (A549 and H460 cells) or DMEM (HeLa, L132 and RAW cells) containing antibiotics (penicillin and streptomycin) and 10% FBS. All the cells were subcultured every 3 or 4 days. The apoptosis-induced apoptotic cells were washed with PBS and blocked with 1% BSA at 37° C. for 30 minutes. Then, the cells were reacted with 10 μM of the peptide labeled with fluorescein, at 4° C. for 1 hour. After washing, the cells were reacted with an annexin V reaction buffer containing Alexa594-labeled annexin V (Molecular Probes), at room temperature for 15 minutes. The cells were washed with PBS and then fixed with 4% paraformaldehyde for 5 minutes. Thereafter, after counterstaining using the nuclear stain 4′,6-diamidino-2-phenylindole (DAPI), followed by treatment with a mounting solution (Molecular Probes), images of the cells were obtained under a fluorescence microscope (Zeiss).

[5] = test system: apoptotic A549 cells; test: Competitive inhibition of binding to apoptotic cells by annexin V treatment (Example 9-2); assay type: cell-based, human; conditions: annexin V 1000 μM pre-treatment
Experimental: In order to further investigate the binding properties of the polypeptide of the present invention (ApoPep-2) to apoptotic cells, competitive inhibition by annexin V was measured. To this end, first, apoptotic A549 cells were pre-treated with annexin V, not labeled with fluorescence, at concentrations of 0, 500 and 1000 μM. Then, after reacting the cells with fluorescence-labeled annexin V under the same condition as described in Example <9-1>, the binding of the cells was observed under a fluorescence microscope.
as §1, with “<9-1>,” for “<3-1>,”

[6] = test system: etoposide-treated apoptotic A549 cells; test: FACS analysis of binding to apoptotic cells (Example 9-3); assay type: cell-based, human
Experimental: As another way of confirming the binding of the polypeptide of the present invention (ApoPep-2) to apoptotic cells, apoptotic cells were treated with the peptide, labeled with fluorescein, and the binding was confirmed through FACS analysis. First, apoptosis was induced by treating A549 cells with 50 μM etoposide for 20 hours. The apoptotic cells or normal cells were reacted with ApoPep-2 (10 μM) or a control peptide at the same concentration, labeled with fluorescein, at 4° C. or 37° C. for 1 hour. Further, the cells were reacted with fluorescein-labeled annexin V at room temperature for 15 minutes. After washing cells with PBS, FACS analysis was performed using a FACS instrument (Becton Dickinson).

[7] = test system: necrosis-induced A549 cells (glucose-depleted medium); test: Microscopic observation of binding of the peptide to necrotic cells (Example 9-4); assay type: cell-based, human; conditions: glucose-depleted medium 24 hours; 10 μM fluorescein-labeled peptide 4° C. 1 hour
Experimental: A549 Cells were cultured in chamber slide (Nunc) and treated with glucose-depleted medium for 24 hours to induce necrosis. The necrosis-induced cells were washed with PBS and blocked with 1% BSA at 37° C. for 30 minutes. Then, the cells were reacted with 10 μM of the peptide labeled with fluorescein, at 4° C. for 1 hour. After washing, the cells were reacted with […] Hoechst […] dye and […] PI at 37° C. for 15 minutes. The cells were washed with PBS and then fixed with 4% paraformaldehyde for 5 minutes.

[8] = Cy7.5-labeled peptide 50 μM i.v.

| Substance | NIR fluorescence of the heart portion, myocardial ischemic rat versus control group (Sham) rat [1] | fluorescence of isolated brain of stroke rat ([2]; 3 hour group, left middle cerebral artery occluded) | NIR fluorescence at the head portion of the normal rat [2, 8] | NIR fluorescence at the head portion of the stroke rat at 3 hours [2, 8] | NIR fluorescence at the head portion of the stroke rat at 1 hour ([2]; Cy7.5-labeled peptide 50 μM i.v., 2 hours after reperfusion) | binding of fluorescence-labeled peptide after pre-treatment with unlabeled annexin V [3] | labeling of normal cells not treated with etoposide ([4]; 10 μM fluorescein-labeled peptide 4° C. 1 hour, Alexa594-annexin V) | labeling of etoposide-treated apoptotic cells (fluorescence microscopy) ([4]; 50 μM etoposide, 10 μM fluorescein-labeled peptide 4° C. 1 hour, Alexa594-annexin V room temperature 15 minutes) | location of peptide binding relative to annexin V binding (merge) ([4]; etoposide-treated apoptotic cells) | binding of fluorescence-labeled peptide after pre-treatment with unlabeled annexin V [5] | binding to normal cells (FACS) ([6]; A549 without etoposide, 10 μM, 4° C. or 37° C.) | cells bound to the peptide at 4° C. ([6]; etoposide 20 hours, peptide 10 μM, 4° C. 1 hour) [%] | cells bound to the peptide at 37° C. ([6]; etoposide 20 hours, peptide 10 μM, 37° C. 1 hour) [%] | labeling of glucose-depleted necrotic cells [7] |
| --- | --- | --- | --- | --- | --- | --- | --- | --- | --- | --- | --- | --- | --- | --- |
| CQRPPR (also: fluorescein or Cy7.5 label) [ApoPep-1, peptide CQRPPR screened for macrophages; used fluorescein- or Cy7.5-labeled] | much stronger NIR fluorescence | fluorescence was observed at the left hemisphere | almost nonexistent | very strong fluorescence | NIR fluorescence was observed | not inhibited | no labeling was observed | labeling was observed | at the same locations | – | – | – | – | – |
| CSVAPR (also: fluorescein or Cy7.5 label) [ApoPep-2, peptide CSVAPR screened for endothelial cells; used fluorescein- or Cy7.5-labeled] | – | – | – | – | – | – | – | – | – | not inhibited | almost nonexistent or minimal | 28 | 48 | did not bind to the necrosis-induced cells; also recorded: no labeling was observed |
